# From US20230276831A1, “Food/Beverage Article” (Kikkoman Corporation, priority 2020, published 2023)
# Test system: Lactobacillus rennini (DSM 20253)
# Test: Antimicrobial action of licoricidin in soy sauce at various pH (Test Example 5)
# Assay type: cell-based
# Design: key: A: The bacterial count decreases to less than 10% of the bacterial count of the control group.; B: The bacterial count decreases to 10% or more and less than 50% of the bacterial count of the control group.; C: The bacterial count decreases to 50% or more and less than 100% of the bacterial count of control group.; D: The bacterial count is the same as the bacterial count of the control group
# Protocol: Commercially available whole soybean soy sauce (produced by Kikkoman Corporation) was electrodialyzed and then concentrated under reduced pressure to obtain soy sauce at a salt concentration of 0% (w/v) and an alcohol concentration of 0% (v/v). Then, salt and/or alcohol was added to the above-mentioned obtained soy sauce, and hydrochloric acid or an aqueous sodium hydroxide solution was then added to adjust the pH to a desired pH. Germfree purified water was added, and the mixture was then heat-treated to produce soy sauce at the salt concentration, the alcohol concentration, and the pH shown in the following Table 17.
# Licoricidin (produced by ChemFaces) was added to each of the obtained soy sauces to concentrations of 1 ppm, 5 ppm, 10 ppm, 25 ppm, and 50 ppm. Lactic acid bacteria (Lactobacillus rennini (DSM 20253)) were then added to 10^6 to 10^7 cells/mL and cultured at 30° C. for 7 days. After the culture, the number of lactic acid bacteria was measured using the GAM agar medium “Nissui”. Soy sauce to which licoricidin was not added was used as a control group, and the antimicrobial activity was evaluated in comparison with the number of lactic acid bacteria in the control group. The evaluation was performed using the same criterion as in Test Example 4.
smiles,measurement,setting,value
"COc1c(CC=C(C)C)c(O)cc2c1C[C@H](c1ccc(O)c(CC=C(C)C)c1O)CO2 [Licoricidin, 4-[(R)-7-hydroxy-5-methoxy-6-(3-methyl-2-butenyl)chroman-3-yl]-2-(3-methyl-2-butenyl)-1,3-benzenediol]",Antimicrobial activity,"salt 0% (w/v), pH 4.2, alcohol 0% (v/v), licoricidin 1 ppm",B (The bacterial count decreases to 10% or more and less than 50% of the bacterial count of the control group.)
same,Antimicrobial activity,"salt 0% (w/v), pH 4.2, alcohol 0% (v/v), licoricidin 5 ppm",B (The bacterial count decreases to 10% or more and less than 50% of the bacterial count of the control group.)
same,Antimicrobial activity,"salt 0% (w/v), pH 4.2, alcohol 0% (v/v), licoricidin 10 ppm",A (The bacterial count decreases to less than 10% of the bacterial count of the control group.)
same,Antimicrobial activity,"salt 0% (w/v), pH 4.2, alcohol 0% (v/v), licoricidin 25 ppm",A (The bacterial count decreases to less than 10% of the bacterial count of the control group.)
same,Antimicrobial activity,"salt 0% (w/v), pH 4.2, alcohol 0% (v/v), licoricidin 50 ppm",A (The bacterial count decreases to less than 10% of the bacterial count of the control group.)
same,Antimicrobial activity,"salt 0% (w/v), pH 4.2, alcohol 5% (v/v), licoricidin 1 ppm",B (The bacterial count decreases to 10% or more and less than 50% of the bacterial count of the control group.)
same,Antimicrobial activity,"salt 0% (w/v), pH 4.2, alcohol 5% (v/v), licoricidin 5 ppm",A (The bacterial count decreases to less than 10% of the bacterial count of the control group.)
same,Antimicrobial activity,"salt 0% (w/v), pH 4.2, alcohol 5% (v/v), licoricidin 10 ppm",A (The bacterial count decreases to less than 10% of the bacterial count of the control group.)
same,Antimicrobial activity,"salt 0% (w/v), pH 4.2, alcohol 5% (v/v), licoricidin 25 ppm",A (The bacterial count decreases to less than 10% of the bacterial count of the control group.)
same,Antimicrobial activity,"salt 0% (w/v), pH 4.2, alcohol 5% (v/v), licoricidin 50 ppm",A (The bacterial count decreases to less than 10% of the bacterial count of the control group.)
same,Antimicrobial activity,"salt 0% (w/v), pH 4.6, alcohol 0% (v/v), licoricidin 1 ppm",C (The bacterial count decreases to 50% or more and less than 100% of the bacterial count of control group.)
same,Antimicrobial activity,"salt 0% (w/v), pH 4.6, alcohol 0% (v/v), licoricidin 5 ppm",B (The bacterial count decreases to 10% or more and less than 50% of the bacterial count of the control group.)
same,Antimicrobial activity,"salt 0% (w/v), pH 4.6, alcohol 0% (v/v), licoricidin 10 ppm",A (The bacterial count decreases to less than 10% of the bacterial count of the control group.)
same,Antimicrobial activity,"salt 0% (w/v), pH 4.6, alcohol 0% (v/v), licoricidin 25 ppm",A (The bacterial count decreases to less than 10% of the bacterial count of the control group.)
same,Antimicrobial activity,"salt 0% (w/v), pH 4.6, alcohol 0% (v/v), licoricidin 50 ppm",A (The bacterial count decreases to less than 10% of the bacterial count of the control group.)
same,Antimicrobial activity,"salt 0% (w/v), pH 4.6, alcohol 5% (v/v), licoricidin 1 ppm",C (The bacterial count decreases to 50% or more and less than 100% of the bacterial count of control group.)
same,Antimicrobial activity,"salt 0% (w/v), pH 4.6, alcohol 5% (v/v), licoricidin 5 ppm",A (The bacterial count decreases to less than 10% of the bacterial count of the control group.)
same,Antimicrobial activity,"salt 0% (w/v), pH 4.6, alcohol 5% (v/v), licoricidin 10 ppm",A (The bacterial count decreases to less than 10% of the bacterial count of the control group.)
same,Antimicrobial activity,"salt 0% (w/v), pH 4.6, alcohol 5% (v/v), licoricidin 25 ppm",A (The bacterial count decreases to less than 10% of the bacterial count of the control group.)
same,Antimicrobial activity,"salt 0% (w/v), pH 4.6, alcohol 5% (v/v), licoricidin 50 ppm",A (The bacterial count decreases to less than 10% of the bacterial count of the control group.)
same,Antimicrobial activity,"salt 0% (w/v), pH 5.0, alcohol 0% (v/v), licoricidin 1 ppm",D
same,Antimicrobial activity,"salt 0% (w/v), pH 5.0, alcohol 0% (v/v), licoricidin 5 ppm",B (The bacterial count decreases to 10% or more and less than 50% of the bacterial count of the control group.)
same,Antimicrobial activity,"salt 0% (w/v), pH 5.0, alcohol 0% (v/v), licoricidin 10 ppm",B (The bacterial count decreases to 10% or more and less than 50% of the bacterial count of the control group.)
same,Antimicrobial activity,"salt 0% (w/v), pH 5.0, alcohol 0% (v/v), licoricidin 25 ppm",A (The bacterial count decreases to less than 10% of the bacterial count of the control group.)
same,Antimicrobial activity,"salt 0% (w/v), pH 5.0, alcohol 0% (v/v), licoricidin 50 ppm",A (The bacterial count decreases to less than 10% of the bacterial count of the control group.)
same,Antimicrobial activity,"salt 0% (w/v), pH 5.0, alcohol 5% (v/v), licoricidin 1 ppm",C (The bacterial count decreases to 50% or more and less than 100% of the bacterial count of control group.)
same,Antimicrobial activity,"salt 0% (w/v), pH 5.0, alcohol 5% (v/v), licoricidin 5 ppm",B (The bacterial count decreases to 10% or more and less than 50% of the bacterial count of the control group.)
same,Antimicrobial activity,"salt 0% (w/v), pH 5.0, alcohol 5% (v/v), licoricidin 10 ppm",B (The bacterial count decreases to 10% or more and less than 50% of the bacterial count of the control group.)
same,Antimicrobial activity,"salt 0% (w/v), pH 5.0, alcohol 5% (v/v), licoricidin 25 ppm",A (The bacterial count decreases to less than 10% of the bacterial count of the control group.)
same,Antimicrobial activity,"salt 0% (w/v), pH 5.0, alcohol 5% (v/v), licoricidin 50 ppm",A (The bacterial count decreases to less than 10% of the bacterial count of the control group.)
same,Antimicrobial activity,"salt 0% (w/v), pH 5.4, alcohol 0% (v/v), licoricidin 1 ppm",D
same,Antimicrobial activity,"salt 0% (w/v), pH 5.4, alcohol 0% (v/v), licoricidin 5 ppm",D
same,Antimicrobial activity,"salt 0% (w/v), pH 5.4, alcohol 0% (v/v), licoricidin 10 ppm",C (The bacterial count decreases to 50% or more and less than 100% of the bacterial count of control group.)
same,Antimicrobial activity,"salt 0% (w/v), pH 5.4, alcohol 0% (v/v), licoricidin 25 ppm",C (The bacterial count decreases to 50% or more and less than 100% of the bacterial count of control group.)
same,Antimicrobial activity,"salt 0% (w/v), pH 5.4, alcohol 0% (v/v), licoricidin 50 ppm",C (The bacterial count decreases to 50% or more and less than 100% of the bacterial count of control group.)
same,Antimicrobial activity,"salt 0% (w/v), pH 5.4, alcohol 5% (v/v), licoricidin 1 ppm",B (The bacterial count decreases to 10% or more and less than 50% of the bacterial count of the control group.)
same,Antimicrobial activity,"salt 0% (w/v), pH 5.4, alcohol 5% (v/v), licoricidin 5 ppm",A (The bacterial count decreases to less than 10% of the bacterial count of the control group.)
same,Antimicrobial activity,"salt 0% (w/v), pH 5.4, alcohol 5% (v/v), licoricidin 10 ppm",A (The bacterial count decreases to less than 10% of the bacterial count of the control group.)
same,Antimicrobial activity,"salt 0% (w/v), pH 5.4, alcohol 5% (v/v), licoricidin 25 ppm",A (The bacterial count decreases to less than 10% of the bacterial count of the control group.)
same,Antimicrobial activity,"salt 0% (w/v), pH 5.4, alcohol 5% (v/v), licoricidin 50 ppm",A (The bacterial count decreases to less than 10% of the bacterial count of the control group.)
same,Antimicrobial activity,"salt 0% (w/v), pH 5.8, alcohol 0% (v/v), licoricidin 1 ppm",D
same,Antimicrobial activity,"salt 0% (w/v), pH 5.8, alcohol 0% (v/v), licoricidin 5 ppm",D
same,Antimicrobial activity,"salt 0% (w/v), pH 5.8, alcohol 0% (v/v), licoricidin 10 ppm",D
same,Antimicrobial activity,"salt 0% (w/v), pH 5.8, alcohol 0% (v/v), licoricidin 25 ppm",D
same,Antimicrobial activity,"salt 0% (w/v), pH 5.8, alcohol 0% (v/v), licoricidin 50 ppm",D
same,Antimicrobial activity,"salt 0% (w/v), pH 5.8, alcohol 5% (v/v), licoricidin 1 ppm",B (The bacterial count decreases to 10% or more and less than 50% of the bacterial count of the control group.)
same,Antimicrobial activity,"salt 0% (w/v), pH 5.8, alcohol 5% (v/v), licoricidin 5 ppm",A (The bacterial count decreases to less than 10% of the bacterial count of the control group.)
same,Antimicrobial activity,"salt 0% (w/v), pH 5.8, alcohol 5% (v/v), licoricidin 10 ppm",A (The bacterial count decreases to less than 10% of the bacterial count of the control group.)
same,Antimicrobial activity,"salt 0% (w/v), pH 5.8, alcohol 5% (v/v), licoricidin 25 ppm",A (The bacterial count decreases to less than 10% of the bacterial count of the control group.)
same,Antimicrobial activity,"salt 0% (w/v), pH 5.8, alcohol 5% (v/v), licoricidin 50 ppm",A (The bacterial count decreases to less than 10% of the bacterial count of the control group.)
same,Antimicrobial activity,"salt 4% (w/v), pH 4.2, alcohol 0% (v/v), licoricidin 1 ppm",B (The bacterial count decreases to 10% or more and less than 50% of the bacterial count of the control group.)
same,Antimicrobial activity,"salt 4% (w/v), pH 4.2, alcohol 0% (v/v), licoricidin 5 ppm",A (The bacterial count decreases to less than 10% of the bacterial count of the control group.)
same,Antimicrobial activity,"salt 4% (w/v), pH 4.2, alcohol 0% (v/v), licoricidin 10 ppm",A (The bacterial count decreases to less than 10% of the bacterial count of the control group.)
same,Antimicrobial activity,"salt 4% (w/v), pH 4.2, alcohol 0% (v/v), licoricidin 25 ppm",A (The bacterial count decreases to less than 10% of the bacterial count of the control group.)
same,Antimicrobial activity,"salt 4% (w/v), pH 4.2, alcohol 0% (v/v), licoricidin 50 ppm",A (The bacterial count decreases to less than 10% of the bacterial count of the control group.)
